# In patent US20120258980A1, “Antibacterial Agent for Drug-Resistant Bacteria, Method for Screening for Same, and Use of Same” (priority 2009, published 2012):
# Like-named read-outs stand apart in the source and are kept apart here.
# Tests used:
# [1] = test system: methicillin-susceptible S. aureus (MSSA), MRSA and mutants thereof; experiment: MIC measurement, Test Example 3 (MSSA, MRSA and sequential gyrA/grlA quinolone-resistant mutants); format: cell-based, Staphylococcus aureus; conditions: Staphylococcus aureus
# Excerpt: That is, the first-step quinolone-resistant mutants are bacterial strains which are the same as their parent strains (clinical isolates) except that the genes shown in the corresponding parts of Table 1-1 are mutated. The second-step quinolone-resistant mutants are bacterial strains which are the same as the first-step quinolone-resistant mutants except that the genes shown in the corresponding parts of Table 1-1 are further mutated. The third-step quinolone-resistant mutants are bacterial strains which are the same as the second-step quinolone-resistant mutants except that the genes shown in the corresponding parts of Table 1-1 are further mutated. The fourth-step quinolone-resistant strain is a bacterial strain which is the same as the third-step quinolone-resistant mutant bacteria except that the gene shown in the corresponding part of Table 1-1 is further mutated.
# (§1) Each of the bacterial strains listed in Table 1-1 was shake-cultured at 37° C. overnight in 4 mL of a medium (Tryptical Soy Broth: TSB, product of Becton Dickinson and Company). FDA209P was used as a control.
# (§2) After completion of culturing, the resultant culture was suspended in a cation-adjusted Mueller Hinton Broth (CAMHB, product of Becton Dickinson and Company). Then, the obtained bacterial culture was adjusted in absorbance with the CAMHB so that the absorbance at 578 nm of the bacterial culture was adjusted to 0.3 measured by an absorption spectrometer. In addition, the resultant bacterial culture was 500-fold diluted with the CAMHB.
# (§3) Each of the 500-fold diluted, pre-cultured bacterial cultures was added at 50 μL/well to the CAMHB containing the quinolones and the nybomycins at various concentrations (50 μL/well), followed by statically culturing at 37° C. overnight.
# (§4) After completion of culturing, the growth of the bacteria was visually determined based on turbidity to measure MIC in each bacterial strain.
# [2] = test system: VISA clinical isolates of MRSA (VI-MRSA) and of MSSA (VI-MSSA); experiment: microbe, parasite or virus in culture; format: cell-based, Staphylococcus aureus
# Procedure, shortened: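 Strains were grown overnight at 37° C in TSB, adjusted in CAMHB to 0.3 absorbance at 578 nm and diluted 500-fold before equal-volume addition to compound dilutions.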
# VRSA clinical isolates = experiment: microbe, parasite or virus in culture; format: cell-based; conditions: Staphylococcus aureus
# Method: as §1, §2, §3, §4
# Here, the glycopeptides used were VCM and TEIC. The β-lactam used was OXA.
# Enterococcus faecalis = experiment: MIC measurement, Test Example 6 (enterococcus); format: cell-based; conditions: for MIC: Enterococcus faecalis, read-out: MIC
# Method: as §1, §2, §3, §4
# Quinolones and nybomycins were evaluated for antibacterial activity against Enterococcus faecalis shown in Table 6, wherein the other strains than NCTC12201 and NCTC12203 were subdivided from Shionogi & Co., Ltd (note that these strains are available also from the Department of Bacteriology, Juntendo University). The NCTC strains are both vancomycin-resistant E. faecalis and available from the National Collection of Type Cultures (NCTC).
compound,measurement,setting,value
"Cc1cc(=O)n2c3c(c4c(cc13)c(CO)cc(=O)n4C)OC2 [NM, nybomycin]",MIC,"[1]; FDA209P / MRSA / MSSA, FDA209P (MSSA), control, read-out: MIC",> 64 µg/mL
same,MIC,"[1]; MR5867 (MRSA), clinical isolate parent strain, no mutation",> 64 µg/mL
same,MIC,"[1]; MR5867-1, first-step quinolone-resistant mutant, grlA E84K",> 64 µg/mL
same,MIC,"[1]; MS5935 (MSSA), clinical isolate parent strain, no mutation, read-out: MIC",> 64 µg/mL
same,MIC,"[1]; MS5935-1, first-step quinolone-resistant mutant, grlA S80F",> 64 µg/mL
same,MIC,"[1]; MS5952 (MSSA), clinical isolate parent strain, no mutation, read-out: MIC",> 64 µg/mL
same,MIC,"[1]; MS5952-1, first-step quinolone-resistant mutant, grlA S80Y",> 64 µg/mL
same,MIC,"[2]; Staphylococcus aureus, 99/3700-W, VI-MRSA, The United Kingdom",0.25 µg/mL
same,MIC,"[2]; Staphylococcus aureus, 99/3759-V, VI-MRSA, The United Kingdom",0.5 µg/mL
same,MIC,"[2]; Staphylococcus aureus, 28160, VI-MRSA, South African Republic",0.5 µg/mL
same,MIC,"[2]; Staphylococcus aureus, 98141, VI-MRSA, France",0.5 µg/mL
same,MIC,"[2]; Staphylococcus aureus, A7 (JCSC4842), VI-MRSA, Taiwan",0.125 µg/mL
same,MIC,"[2]; Staphylococcus aureus, AMC11094, VI-MRSA, Korea",1 µg/mL
same,MIC,"[2]; Staphylococcus aureus, B7 (JCSC4852), VI-MRSA, Taiwan",≤ 0.063 µg/mL
same,MIC,"[2]; Staphylococcus aureus, BR1, VI-MRSA, Brazil",0.5 µg/mL
same,MIC,"[2]; Staphylococcus aureus, BR2, VI-MRSA, Brazil",0.25 µg/mL
same,MIC,"[2]; Staphylococcus aureus, BR3, VI-MRSA, Brazil",0.25 µg/mL
same,MIC,"[2]; Staphylococcus aureus, BR4, VI-MRSA, Brazil",0.25 µg/mL
same,MIC,"[2]; Staphylococcus aureus, BR5, VI-MRSA, Brazil",0.25 µg/mL
same,MIC,"[2]; Staphylococcus aureus, HIP06297, VI-MRSA, America",0.5 µg/mL
same,MIC,"[2]; Staphylococcus aureus, HIP06854, VI-MRSA, America",1 µg/mL
same,MIC,"[2]; Staphylococcus aureus, HIP07920, VI-MRSA, America",0.25 µg/mL
same,MIC,"[2]; Staphylococcus aureus, HIP07930, VI-MRSA, America",1 µg/mL
same,MIC,"[2]; Staphylococcus aureus, HIP08926, VI-MRSA, America",0.25 µg/mL
same,MIC,"[2]; Staphylococcus aureus, HIP09143, VI-MRSA, America",0.25 µg/mL
same,MIC,"[2]; Staphylococcus aureus, HIP09313, VI-MRSA, America",0.5 µg/mL
same,MIC,"[2]; Staphylococcus aureus, HIP09433, VI-MRSA, America",1 µg/mL
same,MIC,"[2]; Staphylococcus aureus, HIP09662, VI-MRSA, America",1 µg/mL
same,MIC,"[2]; Staphylococcus aureus, HIP09735, VI-MRSA, America",0.25 µg/mL
same,MIC,"[2]; Staphylococcus aureus, HIP09737, VI-MSSA, America",1 µg/mL
same,MIC,"[2]; Staphylococcus aureus, HIP09740, VI-MRSA, America",0.25 µg/mL
same,MIC,"[2]; Staphylococcus aureus, HIP10267, VI-MRSA, America",2 µg/mL
same,MIC,"[2]; Staphylococcus aureus, HIP10540, VI-MRSA, America",0.25 µg/mL
same,MIC,"[2]; Staphylococcus aureus, HIP12864, VI-MRSA, America",0.5 µg/mL
same,MIC,"[2]; Staphylococcus aureus, HIP13036, VI-MRSA, America",0.5 µg/mL
same,MIC,"[2]; Staphylococcus aureus, HIP13057, VI-MRSA, America",0.25 µg/mL
same,MIC,"[2]; Staphylococcus aureus, IL (HIP7737), VI-MRSA, America",1 µg/mL
same,MIC,"[2]; Staphylococcus aureus, JCSC7193, VI-MRSA, Thailand",0.33 µg/mL
same,MIC,"[2]; Staphylococcus aureus, JCSC7195, VI-MRSA, Thailand",0.33 µg/mL
same,MIC,"[2]; Staphylococcus aureus, JCSC7203, VI-MRSA, Thailand",0.16 µg/mL
same,MIC,"[2]; Staphylococcus aureus, LIM2, VI-MRSA, France",0.5 µg/mL
same,MIC,"[2]; Staphylococcus aureus, LY-1999-01, VI-MSSA, Oman",0.125 µg/mL
same,MIC,"[2]; Staphylococcus aureus, LY-1999-03, VI-MRSA, Oman",≤ 0.063 µg/mL
same,MIC,"[2]; Staphylococcus aureus, MI (HIP5827), VI-MRSA, America",0.5 µg/mL
same,MIC,"[2]; Staphylococcus aureus, MRSA / MSSA / NRS 76 / VISA, NRS76, VI-MSSA, America",0.25 µg/mL
same,MIC,"[2]; Staphylococcus aureus, MRSA / MSSA / NRS 79 / VISA, NRS79, VI-MRSA, America",1 µg/mL
same,MIC,"[2]; Staphylococcus aureus, MRSA / MSSA / NRS 118 / VISA, NRS118, VI-MRSA, America",0.25 µg/mL
same,MIC,"[2]; Staphylococcus aureus, MRSA / MSSA / NRS 126 / VISA, NRS126, VI-MRSA, America",0.5 µg/mL
same,MIC,"[2]; Staphylococcus aureus, Mu3, VI-MRSA, Japan",0.5 µg/mL
same,MIC,"[2]; Staphylococcus aureus, Mu50, VI-MRSA, Japan",0.25 µg/mL
same,MIC,"[2]; Staphylococcus aureus, NJ (HIP5836), VI-MRSA, America",0.5 µg/mL
same,MIC,"[2]; Staphylococcus aureus, P1V44, VI-MSSA, Belgium",1 µg/mL
same,MIC,"[2]; Staphylococcus aureus, PC, VI-MRSA, America",1 µg/mL
same,MIC,"[2]; Staphylococcus aureus, SA MER-S6, VI-MSSA, France",64 µg/mL
same,MIC,"[2]; Staphylococcus aureus, SA MER-S12, VI-MSSA, France",64 µg/mL
same,MIC,"[2]; Staphylococcus aureus, SA MER-S20, VI-MSSA, France",> 64 µg/mL
same,MIC,"VRSA clinical isolates; VRS1, VRSA, Michigan",0.125 µg/mL
same,MIC,"VRSA clinical isolates; VRS2, VRSA, Pennsylvania",0.25 µg/mL
same,MIC,"VRSA clinical isolates; VRS3, VRSA, New York",0.125 µg/mL
same,MIC,"VRSA clinical isolates; VRS4, VRSA, New York",0.125 µg/mL
same,MIC,"VRSA clinical isolates; VRS5, VRSA, Michigan",≤ 0.063 µg/mL
same,MIC,"VRSA clinical isolates; VRS6, VRSA, Michigan",≤ 0.063 µg/mL
same,MIC,"VRSA clinical isolates; VRS7, VRSA, Michigan",0.5 µg/mL
same,MIC,"Enterococcus faecalis; E. faecalis 36-15672, quinolone-susceptible enterococci",> 64 µg/mL
same,MIC,"Enterococcus faecalis; E. faecalis 36-15673, quinolone-susceptible enterococci",> 64 µg/mL
same,MIC,"Enterococcus faecalis; E. faecalis 36-15678, quinolone-susceptible enterococci",> 64 µg/mL
same,MIC,"Enterococcus faecalis; E. faecalis 36-15686, quinolone-resistant enterococci",0.5 µg/mL
same,MIC,"Enterococcus faecalis; E. faecalis 36-15688, quinolone-susceptible enterococci",> 64 µg/mL
same,MIC,"Enterococcus faecalis; E. faecalis 36-15694, quinolone-resistant enterococci",1 µg/mL
same,MIC,"Enterococcus faecalis; E. faecalis 36-15696, quinolone-susceptible enterococci",> 64 µg/mL
same,MIC,"Enterococcus faecalis; E. faecalis 36-15703, quinolone-resistant enterococci",2 µg/mL
same,MIC,"Enterococcus faecalis; E. faecalis 36-15716, quinolone-resistant enterococci",1 µg/mL
same,MIC,"Enterococcus faecalis; E. faecalis 36-15718, quinolone-susceptible enterococci",32 µg/mL
same,MIC,"Enterococcus faecalis; E. faecalis 36-15720, quinolone-susceptible enterococci",> 64 µg/mL
same,MIC,"Enterococcus faecalis; E. faecalis 36-15722, quinolone-resistant enterococci",1 µg/mL
same,MIC,"Enterococcus faecalis; E. faecalis 36-15726, quinolone-resistant enterococci",0.5 µg/mL
same,MIC,"Enterococcus faecalis; E. faecalis 36-15730, quinolone-susceptible enterococci",> 64 µg/mL
same,MIC,"Enterococcus faecalis; E. faecalis 36-15736, quinolone-susceptible enterococci",> 64 µg/mL
same,MIC,"Enterococcus faecalis; E. faecalis 36-15741, quinolone-susceptible enterococci",> 64 µg/mL
same,MIC,"Enterococcus faecalis; NCTC 12201 / VRE, E. faecalis NCTC12201, vancomycin-resistant (VRE), quinolone-susceptible enterococci",8 µg/mL
same,MIC,"Enterococcus faecalis; NCTC 12203 / VRE, E. faecalis NCTC12203, vancomycin-resistant (VRE), quinolone-susceptible enterococci",16 µg/mL
same,"antibacterial activity, comparison between NM and DNM",Enterococcus faecalis; against enterococci,higher antibacterial activity against enterococci than DNM
